Assay results from US10913781B2, “Pepducin design and use” (Tufts Medical Center, Inc., priority 2011, dated 2021).

Columns and labels:
PAR1 = target: T1, PAR1 (Homo sapiens, UniProt P25116); test: PAR1-dependent human platelet aggregation (SFLLRN); assay type: cell-based; design: endogenous in cells; conditions: 2.5 μM SFLLRN; P2pal-18S 1 μM or 5 μM
T1 sequence (P25116 22-425): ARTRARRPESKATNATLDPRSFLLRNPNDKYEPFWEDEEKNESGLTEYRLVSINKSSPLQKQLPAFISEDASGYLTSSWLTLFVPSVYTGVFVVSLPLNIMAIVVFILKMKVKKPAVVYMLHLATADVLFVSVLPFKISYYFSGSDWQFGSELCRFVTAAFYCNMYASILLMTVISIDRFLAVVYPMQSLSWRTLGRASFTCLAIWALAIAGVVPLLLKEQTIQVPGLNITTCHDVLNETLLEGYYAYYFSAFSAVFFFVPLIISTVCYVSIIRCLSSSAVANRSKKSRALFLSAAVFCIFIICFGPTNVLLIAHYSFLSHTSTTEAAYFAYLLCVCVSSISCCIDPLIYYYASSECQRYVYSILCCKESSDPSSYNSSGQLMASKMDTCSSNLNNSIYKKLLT
Method: FIG. 5 illustrates: (A) PAR1-dependent human platelet aggregation is not affected by P2pal-18S. Gel-filtered platelets were incubated with 2.5 μM SFLLRN (SEQ ID NO:1) to induce PAR1-dependent platelet aggregation. […] Error bars represent mean±SD. […] Cells were lifted and incubated in PBS/0.4% BSA for 30 min at 25° C. with 0.5-30 μM P2pal-18S or P2pal-14GQ. Propidium iodide (PI) was added directly to the cells and after a 15 min incubation, PI uptake was quantified by flow cytometry. […] Error bars represent ±SEM.

PAR4 = target: T2, PAR4 (Homo sapiens, UniProt Q96RI0); test: Human neutrophil chemotaxis to AYPGKF; assay type: cell-based; design: endogenous in cells; host or cells: human peripheral blood neutrophils; conditions: 100 μM AYPGKF
T2 sequence (Q96RI0 18-385): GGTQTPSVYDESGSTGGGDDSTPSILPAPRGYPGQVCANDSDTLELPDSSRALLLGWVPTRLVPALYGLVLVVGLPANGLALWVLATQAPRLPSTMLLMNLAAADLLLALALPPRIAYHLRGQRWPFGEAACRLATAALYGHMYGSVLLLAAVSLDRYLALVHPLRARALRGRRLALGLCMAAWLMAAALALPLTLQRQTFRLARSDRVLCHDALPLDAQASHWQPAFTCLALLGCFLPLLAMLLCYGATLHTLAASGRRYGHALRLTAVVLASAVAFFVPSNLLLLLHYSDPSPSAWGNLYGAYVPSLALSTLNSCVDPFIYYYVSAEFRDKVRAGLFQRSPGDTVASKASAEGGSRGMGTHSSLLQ
Method: (A) Human neutrophils (n=4 normal volunteers) were analyzed for surface expression of human PAR1, PAR2, and PAR4 by flow cytometry with PAR-specific antibodies. […] Chemotaxis index is the ratio of directed versus random migration over 30 min through a 5-μm pore filter.
P2pal-18S had no effect on PAR1-dependent platelet aggregation (FIG. 5A). Neither P2pal-18S nor P2pal-14GQ caused membrane disruption or apoptosis as assessed by propidium iodide uptake in SW620 cells with up to 30 μM concentrations of pepducin (FIG. 5B).

SMILES: CCCCCCCCCCCCCCCC(=O)N[C@@H](CCCNC(=N)N)C(=O)N[C@@H](CO)C(=O)N[C@@H](CO)C(=O)N[C@@H](C)C(=O)N[C@@H](CCSC)C(=O)N[C@@H](CC(=O)O)C(=O)N[C@@H](CCC(=O)O)C(=O)N[C@@H](CC(N)=O)C(=O)N[C@@H](CO)C(=O)N[C@@H](CCC(=O)O)C(=O)N[C@@H](CCCCN)C(=O)N[C@@H](CCCCN)C(=O)N[C@@H](CCCNC(=N)N)C(=O)N[C@@H](CCCCN)C(=O)N[C@@H](CO)C(=O)N[C@@H](C)C(=O)N[C@H](C(=O)N[C@@H](CCCCN)C(N)=O)[C@@H](C)CC [P2pal-18S]
- Effect on PAR1-dependent platelet aggregation (PAR1): had no effect
- Antagonist activity, neutrophil chemotaxis, PAR4 (PAR4): no antagonist activity
